Test system: SREBP-1c promoter
Test: SREBP-1c promoter dual luciferase reporter assay in HEK293T cells with RXRα/LXRα ligands
Format: cell-based, human
Conditions: ligand(s) in culture solution for 24 hours, firefly relative to Renilla luciferase
From the text: A genome DNA fragment coding the SREBP-1c promoter region (located in residues −410 to +24 base region) from mouse genome was amplified, and the resulting fragment was inserted into KpnI and HindIII sites in pGL3-Basic (manufactured by Promega Corporation), to give pGL3-SREBP-1cPro (FIG. 4a).
Human embryonic kidney cells (HEK293T: cell expressing endogenous […] ) were transformed with the control plasmid coding pGL3-srebp-1cPro and Renilla luciferase (manufactured by Promega Corporation) and together with any one plasmid of (i) vacant plasmid, (ii) plasmid coding the HCV core protein, (iii) plasmid coding RXRα and LXRα, and (iv) plasmid coding RXRα, LXRα and the HCV core protein. The transformant obtained was cultivated in a culture solution containing a RXRα's ligand 9-cis-retinoic acid (9cisRA; product of Sigma Corporation), a LXRα's ligand 22(R)-hydroxycholesterol (22(R)HC), or both of them as additives for 24 hours, and then, the cells were collected; the luciferase activity of the cells was determined, similarly to (1) above, by using the dual luciferase reporter assay system (manufactured by Promega Corporation).

| Compound | SREBP-1c promoter activity by the HCV core protein (luciferase activity) |
| --- | --- |
| 9-cis-retinoic acid | increase in SREBP-1c promoter activity |
| CC(C)CC[C@@H](O)[C@@H](C)[C@H]1CC[C@H]2[C@@H]3CC=C4C[C@@H](O)CC[C@]4(C)[C@H]3CC[C@]12C [22(R)-hydroxycholesterol] | increase in SREBP-1c promoter activity |
